# Data reported in patent publication EP0043274A2, “Antithrombotic treatment” (priority 1980, dated 1982).
# “And” between values parts separate entries of the source, which are not always exact repeats. Identical values can stand only once. Like-named read-outs stand apart in the source and are kept apart here.
# Experiments:
# [1] = test system: human plasma; type: biochemical
# [2] = test system: thrombus formation in the jugular vein; assay: I 125 fibrinogen technique, damaged jugular vein (venous thrombosis), continuous infusion; type: in vivo, rabbits; settings: for thrombus formation in the jugular vein (conclusion in words): continuous infusion for five hours
# Description: The anti venous thrombotic effect of sodium bisulfite is evaluated in rabbits by using I ^125 fibrinogen technique as described in an article in "Archives of Surgery" Vol. 104, pg. 152 (1972).
# The rabbit was continuously infused with aqueous sodium bisulfite solution at the rate of […]. (5.154 gram per hour) (animal body weight 2.3 kg) for a time of five hours. After 5 hours, the animal was sacrificed and the radioactive fibrinogen accumulated in the damaged jugular vein was determined. The radioactivity on the contra-lateral (undamaged) jugular vein was also determined to serve as a control. Concurrently, another rabbit had experienced the same procedure but received only a standard sodium chloride solution as a control. The rabbit from the normal saline solution has seven times as much radioactivity as his counterpart infused with sodium bisulfite.
# Two jugular veins on a normal, healthy rabbit are exposed and one of the veins is systematically damaged by clamping in two longitudinally spaced places. The rabbit is then continuously infused with aqueous sodium formaldehyde bisulfite at the rate of […] (5.154 gram per hour) (animal body weight 2.3 kg). The rabbit is then injected with fibrinogen labeled with I^125. After 5 hours, the damaged jugular vein is evaluated for radioacive count with a Geiger counter.
# This iodine 125 evaluation technique is described by Kakkar in Archieves of Surgery, Vol. 104, pg. 152 (1972) and by Kelton, J.G. et al, Journal of Clinical Investigation, Vol. 62, pgs. 892-895, (1978). […] Other rabbits, similarly evaluated, died, apparently because of overdose by the infustion technique.
# [3] = test system: human plasma; type: biochemical; settings: for PTT(seconds) Exp. 2 A: Active Agent 0.5/ml, test sequences A and B, control 50.5 (A), 44.5 (B)
# [4] = amine bisulfites, control plasma 12.8 / 13.1
# [5] = amine bisulfites, control plasma 13.1 / 13.0
# [6] = amine bisulfites, control plasma 37.5 / 38.2
# [7] = amine bisulfites, control plasma 37.8 / 39.2
# [8] = coded agents 0.5mg/ml, […], control 12.92
# [9] = 0.5 mg/ml, two different days, control 42.6 / 42.10
# [10] = coded agents 0.5mg/ml, […], control 43.38
# [11] = 0.5 mg/ml, two different days, control 13.40
# [12] = in vitro, concentration not given
molecule,measurement,setting,value
OCCNCCO [DIETHANOL AMINE],PT REPLICATIONS 1,[1]; [4],20.6
same,PT REPLICATIONS 2,[1]; [4],19.8
same,PT REPLICATIONS 3,[1]; [5],19.7
same,thrombus formation in the jugular vein (conclusion in words),[2],definite positive antithrombotic effect
same,PTT REPLICATIONS 2,[3],58.0
same,PTT REPLICATIONS 1,[3]; [6],62.6
same,PTT REPLICATIONS 3,[3]; [7],60.6
CCCC[N+](CCCC)(CCCC)CCCC [tetrabutyl ammonium bisulfite],radioactivity (I 125 fibrinogen) in damaged jugular vein of saline control rabbit relative to treated rabbit,[2]; continuous infusion .001 mg/kg min (5.154 gram per hour) for five hours,approximately 7 times
"Cl.c1ccncc1 [PYRIDINE HYDROCHLORIDE (CRYSTALS), PYRIDINE HYDROCHLORIDE, reference compound]",PT 1,[1]; HYDROCHLORIDE,12.9
same,PT 2,[1]; HYDROCHLORIDE,12.8
same,PT 3,[1]; HYDROCHLORIDE,14.0
same,PTT 1,[3]; HYDROCHLORIDE,31.3
same,PTT 2,[3]; HYDROCHLORIDE,31.1
same,PTT 3,[3]; HYDROCHLORIDE,32.2
"CC(C)=O [acetone, reference compound]",PT (effect in words),"[1]; in vitro, 0.5 mg/ml",minimal effect
same,PTT (effect in words),"[3]; in vitro, 0.5 mg/ml",minimal effect
CN1CCOCC1 [4-METHYL MORPHOLINE],PT REPLICATIONS 1,[1],21.3
same,PT REPLICATIONS 2,[1],21.5
same,PT REPLICATIONS 3,[1],20.4
same,PTT REPLICATIONS 1,[3],63.5
same,PTT REPLICATIONS 2,[3],61.3
same,PTT REPLICATIONS 3,[3],60.6
"Sodium thiosulfate [SI6, reference compound]",PT,[1],13.5 s
same,PTT,[3],46.2 s
O=S([O-])S(=O)(=O)[O-].[K+].[K+] [Potassium Metabisulfite],PT,[1],18.76 s
same,PT(seconds) Exp. 1 A,[1],18.3 s and 20.4 s
same,PT(seconds) Exp. 2 A,[1],22.0 s
same,PT,[1]; [8],19.34 s
same,PTT(seconds) Exp. 1 A,[3],77.6 s and 91.6 s
same,PTT,[3]; [9],80.60 s
same,PTT(seconds) Exp. 2 A,[3],111.3 s and 105.2 s
same,PTT,[3]; [10],83.84 s
Na Sulfide [reference compound],PT,[1]; [11],21.12 s
same,PTT,[3]; [9],78.50 s
"O=C(O)CC(S)C(=O)O (stereo not shown) [Example A2, Mercaptosuccinic acid, reference compound]",PT,[1],14.7 s
same,PT,[1]; [8],14.60 s
same,PTT,[3]; [9],52.6 s
same,PTT,[3]; [10],48.70 s
benzaldhyde [reference compound],PT (effect in words),"[1]; in vitro, 0.5 mg/ml",minimal effect
same,PTT (effect in words),"[3]; in vitro, 0.5 mg/ml",minimal effect
Na2SO4 [reference compound],PT,[1]; [11],13.6 s
same,PTT,[3]; [9],44.2 s
c1ccncc1 [PYRIDINE],PT REPLICATIONS 1,[1],29.3
same,PT REPLICATIONS 2,[1],27.8
same,PT REPLICATIONS 3,[1],27.2
same,PTT REPLICATIONS 1,[3],80.0
same,PTT REPLICATIONS 2,[3],71.1
same,PTT REPLICATIONS 3,[3],59.3
"O=C(O)/C(O)=C(/O)C(=O)O [Example A3, Dihydroxymaleic acid 2 H2O, reference compound]",PT,[1]; [8],14.95 s
same,PTT,[3]; [10],53.00 s
"CCN(CC)C(=S)S [SO4, Sodium diethyl dithiocarbamate, reference compound]",PT,[1],13.6 s
same,PT,[1]; [8],14.02 s
same,PTT,[3]; [9],48.1 s
same,PTT,"[3]; coded agents 0.5mg/ml, mean values of 5 replications, control 43.38",49.60 s
NCCO [ETHANOL AMINE],PT REPLICATIONS 1,[1]; [4],19.3
same,PT REPLICATIONS 2,[1]; [4],20.5
same,PT REPLICATIONS 3,[1]; [5],18.4
same,PTT REPLICATIONS 2,[3],66.1
same,PTT REPLICATIONS 1,[3]; [6],65.3
same,PTT REPLICATIONS 3,[3]; [7],61.1
Na-hydrosulfite [reference compound],PT,[1]; [11],14.4 s
same,PTT sec,[3]; [9],45.2 (39.0) sec
Ammonium Sulfite,PT,[1],16.08 s
same,PT(seconds) Exp. 1 A,[1],14.7 s
same,PT(seconds) Exp. 2 A,[1],16.9 s
same,PTT(seconds) Exp. 1 A,[3],56.5 s
same,PTT,[3]; [9],58.80 s
same,PTT(seconds) Exp. 2 A,[3],65.2 s
CNC1CCCCC1 [N-METHYL CYCLOHEXYL AMINE],PT REPLICATIONS 1,[1]; [4],20.5
same,PT REPLICATIONS 2,[1]; [4],20.3
same,PT REPLICATIONS 3,[1]; [5],20.4
same,PTT REPLICATIONS 2,[3],61.8
same,PTT REPLICATIONS 1,[3]; [6],60.6
same,PTT REPLICATIONS 3,[3]; [7],61.6
"CN(C)C1CCCCC1 [N,N-DIMETHYL CYCLOHEXYL AMINE]",PT REPLICATIONS 1,[1]; [4],18.9
same,PT REPLICATIONS 2,[1]; [4],20.4
same,PT REPLICATIONS 3,[1]; [5],19.8
same,PTT REPLICATIONS 2,[3],62.1
same,PTT REPLICATIONS 1,[3]; [6],60.1
same,PTT REPLICATIONS 3,[3]; [7],58.9
CCCCCCCCN.O=S(O)O [n-octyl amine bisulfite],thrombus formation in the jugular vein (conclusion in words),[2],definite positive antithrombotic effect
"C[N+](C)(C)C [Tetramethyl Ammonium Bromide, reference compound]",PT sec.,[1],12.5 s
same,PT (effect in words),"[1]; in vitro, 0.5 mg/ml",little or no effect
same,PTT sec,"[3]; 0.5 mg/ml, human plasma, control 38.1",38.5 s
same,PTT (effect in words),"[3]; in vitro, 0.5 mg/ml",little or no effect
"CCCC[N+](CCCC)(CCCC)CCCC.[Br-] [Tetrabutyl Ammonium Bromide, reference compound]",PT (effect in words),[1],little or no effect
same,PT sec.,[1],12.4 s
same,PTT (effect in words),[3],little or no effect
same,PTT sec,[3],38.3 s
C=CCNCC=C [DIALLYL AMINE],PT REPLICATIONS 1,[1]; [4],13.4
same,PT REPLICATIONS 2,[1]; [4],13.7
same,PT REPLICATIONS 3,[1]; [5],13.8
same,PT (effect in words),[1]; [12],low activity
same,PTT REPLICATIONS 2,[3],39.6
same,PTT REPLICATIONS 1,[3]; [6],38.8
same,PTT REPLICATIONS 3,[3]; [7],39.1
same,PTT (effect in words),[3]; [12],low activity
"C=CCNCC=C.Cl [DIALLYL AMINE HYDROCHLORIDE, reference compound]",PT 2,"[1]; amine hydrochlorides, control plasma 12.5",13.1
same,PT 1,"[1]; amine hydrochlorides, control plasma 13.0",12.8
same,PT 3,"[1]; amine hydrochlorides, control plasma 13.5",13.5
same,PTT 1,[3],30.5
same,PTT 3,"[3]; amine hydrochlorides, control plasma 31.2",30.4
same,PTT 2,"[3]; amine hydrochlorides, control plasma 31.3",30.7
"2-octanome [Example 2-octanome, reference compound]",PT (effect in words),"[1]; in vitro, 0.5 mg/ml",minimal effect
same,PTT (effect in words),"[3]; in vitro, 0.5 mg/ml",minimal effect
CCCCN(CCCC)CCCC.O=S(O)O [tri-n-butyl amine bisulfite],thrombus formation in the jugular vein (conclusion in words),[2],definite positive antithrombotic effect
